Source: PubChem BioAssay AID248 (DTP/NCI, 2004)
Several values for one entry are separate records, joined by “and”; a condition that tells them apart may be missing. Identical values can stand only once. Inconclusive results and toxic doses are left out. Rule as the data show it: active = T/C of 150% or more; inactive = T/C below 125%.

Test system: L1210 leukemia ip in BDF1 mice, survival T/C
Experiment: NCI In Vivo Anticancer Drug Screen. Data for tumor model L1210 Leukemia (intraperitoneal) in B6D2F1 (BDF1) mice
Details: endpoint: mean survival time, higher = longer survival
In short: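 Antitumor effect is assessed in tumor-bearing animals. Survival in the compound arm is compared with a vehicle-dosed control arm and expressed as their quotient.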

[1] = dose: 100.0 mg/kg/injection, schedule: Q04DX002 (ip), vehicle: Klucel (hydroxypropylcellulose) (HPC)
[2] = dose: 100.0 mg/kg/injection, schedule: Q04DX002 (ip), vehicle: saline
[3] = dose: 200.0 mg/kg/injection, schedule: Q04DX002 (ip), vehicle: Klucel (hydroxypropylcellulose) (HPC)
[4] = dose: 100.0 mg/kg/injection, schedule: Q04DX002 (ip), vehicle: saline with Tween-80
[5] = dose: 200.0 mg/kg/injection, schedule: Q04DX002 (ip), vehicle: saline with Tween-80
[6] = dose: 400.0 mg/kg/injection, schedule: Q04DX002 (ip), vehicle: saline with Tween-80
[7] = dose: 400.0 mg/kg/injection, schedule: Q04DX002 (ip), vehicle: Klucel (hydroxypropylcellulose) (HPC)
[8] = dose: 100.0 mg/kg/injection, schedule: Q01DX009 (ip), vehicle: Klucel (hydroxypropylcellulose) (HPC)
[9] = dose: 100.0 mg/kg/injection, schedule: Q04DX003 (ip), vehicle: Klucel (hydroxypropylcellulose) (HPC)
[10] = dose: 200.0 mg/kg/injection, schedule: Q01DX009 (ip), vehicle: Klucel (hydroxypropylcellulose) (HPC)
[11] = dose: 200.0 mg/kg/injection, schedule: Q04DX003 (ip), vehicle: Klucel (hydroxypropylcellulose) (HPC)
[12] = dose: 400.0 mg/kg/injection, schedule: Q01DX009 (ip), vehicle: Klucel (hydroxypropylcellulose) (HPC)
[13] = dose: 400.0 mg/kg/injection, schedule: Q04DX003 (ip), vehicle: Klucel (hydroxypropylcellulose) (HPC)
[14] = dose: 100.0 mg/kg/injection, schedule: Q01DX001 (ip), vehicle: Klucel (hydroxypropylcellulose) (HPC)
[15] = dose: 200.0 mg/kg/injection, schedule: Q01DX001 (ip), vehicle: Klucel (hydroxypropylcellulose) (HPC)
[16] = dose: 400.0 mg/kg/injection, schedule: Q01DX001 (ip), vehicle: Klucel (hydroxypropylcellulose) (HPC)
[17] = dose: 100.0 mg/kg/injection, schedule: Q01DX001 (ip), vehicle: saline
[18] = dose: 200.0 mg/kg/injection, schedule: Q01DX001 (ip), vehicle: saline
[19] = dose: 400.0 mg/kg/injection, schedule: Q01DX001 (ip), vehicle: saline

Measured: T/C

CCN1CCC2CN(C(=S)Nc3ccccc3)CCN2C1=O (stereo not drawn)
inactive: dose: 100.0 mg/kg/injection, schedule: Q04DX003 (ip), vehicle: saline with Tween-80 97 % of control | dose: 200.0 mg/kg/injection, schedule: Q04DX003 (ip), vehicle: saline with Tween-80 94 % of control | dose: 400.0 mg/kg/injection, schedule: Q04DX003 (ip), vehicle: saline with Tween-80 91 % of control

CN1CCC2(CC1)C(=O)N(Cc1ccccc1)C(=O)C2c1ccccc1 (stereo not drawn)
inactive: dose: 25.0 mg/kg/injection, schedule: Q04DX002 (ip), vehicle: saline 108 % of control | [1] 93 % of control | [2] 104 % of control and 118 % of control | [3] 86 % of control

CC(=O)OCC(OC(C)=O)C(OC(C)=O)C(OC(C)=O)C(O)C#N (stereo not drawn)
inactive: dose: 12.5 mg/kg/injection, schedule: Q01DX009 (ip), vehicle: saline with Tween-80 93 % of control | dose: 25.0 mg/kg/injection, schedule: Q01DX009 (ip), vehicle: saline with Tween-80 93 % of control | dose: 50.0 mg/kg/injection, schedule: Q01DX009 (ip), vehicle: saline with Tween-80 97 % of control and 100 % of control

C=CCNC(=O)c1ccccc1O
inactive: dose: 100.0 mg/kg/injection, schedule: Q01DX009 (sc), vehicle: olive oil, sesame oil, peanut oil 101 % of control | dose: 100.0 mg/kg/injection, schedule: Q04DX003 (sc), vehicle: olive oil, sesame oil, peanut oil 91 % of control | dose: 200.0 mg/kg/injection, schedule: Q01DX009 (sc), vehicle: olive oil, sesame oil, peanut oil 101 % of control | dose: 200.0 mg/kg/injection, schedule: Q04DX003 (sc), vehicle: olive oil, sesame oil, peanut oil 100 % of control | dose: 400.0 mg/kg/injection, schedule: Q01DX009 (sc), vehicle: olive oil, sesame oil, peanut oil 94 % of control | dose: 400.0 mg/kg/injection, schedule: Q04DX003 (sc), vehicle: olive oil, sesame oil, peanut oil 91 % of control

CS(=O)NOCCCCONS(C)=O (stereo not drawn)
inactive: [4] 96 % of control and 89 % of control | [5] 96 % of control and 100 % of control | [6] 86 % of control

CCCCCCCCCCCCCCCC[N+]1(CC)CCOCC1
inactive: dose: 5.0 mg/kg/injection, schedule: Q01DX001 (ip), vehicle: Klucel (hydroxypropylcellulose) (HPC) 97 % of control | dose: 5.0 mg/kg/injection, schedule: Q01DX001 (ip), vehicle: saline 100 % of control | dose: 5.0 mg/kg/injection, schedule: Q01DX009 (ip), vehicle: Klucel (hydroxypropylcellulose) (HPC) 98 % of control and 103 % of control | dose: 10.0 mg/kg/injection, schedule: Q01DX001 (ip), vehicle: Klucel (hydroxypropylcellulose) (HPC) 113 % of control | dose: 10.0 mg/kg/injection, schedule: Q01DX001 (ip), vehicle: saline 103 % of control | dose: 10.0 mg/kg/injection, schedule: Q01DX009 (ip), vehicle: saline 121 % of control and 88 % of control | dose: 10.0 mg/kg/injection, schedule: Q04DX002 (ip), vehicle: Klucel (hydroxypropylcellulose) (HPC) 98 % of control and 108 % of control | dose: 10.0 mg/kg/injection, schedule: Q04DX002 (ip), vehicle: saline 95 % of control | dose: 20.0 mg/kg/injection, schedule: Q01DX001 (ip), vehicle: Klucel (hydroxypropylcellulose) (HPC) 111 % of control | dose: 20.0 mg/kg/injection, schedule: Q01DX001 (ip), vehicle: saline 103 % of control | dose: 20.0 mg/kg/injection, schedule: Q04DX002 (ip), vehicle: Klucel (hydroxypropylcellulose) (HPC) 98 % of control and 101 % of control | dose: 20.0 mg/kg/injection, schedule: Q04DX002 (ip), vehicle: saline 102 % of control | dose: 40.0 mg/kg/injection, schedule: Q04DX002 (ip), vehicle: Klucel (hydroxypropylcellulose) (HPC) 90 % of control | dose: 40.0 mg/kg/injection, schedule: Q04DX002 (ip), vehicle: saline 95 % of control and 98 % of control | [3] 93 % of control | [7] 88 % of control

CCN(CC)CCCOC(=O)c1ccccc1
inactive: dose: 50.0 mg/kg/injection, schedule: Q01DX009 (ip), vehicle: saline 96 % of control | dose: 100.0 mg/kg/injection, schedule: Q01DX009 (ip), vehicle: saline 100 % of control | dose: 200.0 mg/kg/injection, schedule: Q01DX009 (ip), vehicle: saline 100 % of control

CO/C(=C\c1ccc(OC)cc1)C(=O)O
inactive: [8] 93 % of control | [9] 100 % of control | [10] 90 % of control | [11] 101 % of control | [12] 93 % of control | [13] 100 % of control

CC1=CC(=O)CC(c2ccccc2)C1 (stereo not drawn)
inactive: dose: 100.0 mg/kg/injection, schedule: Q01DX001 (ip), vehicle: carboxymethylcellulose (CMC) 105 % of control | dose: 200.0 mg/kg/injection, schedule: Q01DX001 (ip), vehicle: carboxymethylcellulose (CMC) 103 % of control | dose: 400.0 mg/kg/injection, schedule: Q01DX001 (ip), vehicle: carboxymethylcellulose (CMC) 109 % of control

O=[N+]([O-])c1ccc(/C=C/c2ccccc2)c([N+](=O)[O-])c1
inactive: [9] 104 % of control | [11] 98 % of control | [13] 101 % of control

COc1ccc(OC)c(NC(=O)Nc2nccs2)c1
inactive: [14] 95 % of control | [8] 97 % of control | [1] 97 % of control and 98 % of control | [9] 96 % of control and 122 % of control | [15] 90 % of control | [10] 88 % of control | [3] 96 % of control and 90 % of control | [11] 100 % of control | [16] 95 % of control | [12] 91 % of control | [7] 96 % of control and 101 % of control | [13] 102 % of control and 116 % of control

Cc1ccc(NC(=O)COc2c(C)cc(Cl)cc2Cl)cc1
inactive: [4] 107 % of control | [5] 96 % of control | [6] 93 % of control

CC(=O)Nc1ccc(Cc2ccc(N=Cc3ccccc3)cc2)cc1
inactive: [17] 101 % of control | [18] 104 % of control | [19] 98 % of control

CCCCCCCN(CCCCCCC)CC(O)c1cc(-c2ccc(Cl)cc2)nc2c(C(F)(F)F)cccc12 (stereo not drawn)
inactive: [14] 104 % of control | dose: 100.0 mg/kg/injection, schedule: Q01DX009 (ip), vehicle: saline with Tween-80 102 % of control | [15] 96 % of control | dose: 200.0 mg/kg/injection, schedule: Q01DX009 (ip), vehicle: saline with Tween-80 100 % of control | [16] 100 % of control | dose: 400.0 mg/kg/injection, schedule: Q01DX009 (ip), vehicle: saline with Tween-80 100 % of control

COc1ccc(-n2cnnn2)cc1
inactive: [17] 103 % of control | [18] 103 % of control | [19] 103 % of control

O=C1NC(=O)C(=Cc2ccccc2)C(=O)N1
inactive: [4] 98 % of control | dose: 200.0 mg/kg/injection, schedule: Q01DX Z (ip), vehicle: methylcellulose (MC) 94 % of control | [5] 106 % of control

C=CCNC(N)=S
inactive: [2] 100 % of control | dose: 200.0 mg/kg/injection, schedule: Q04DX002 (ip), vehicle: saline 107 % of control | dose: 400.0 mg/kg/injection, schedule: Q04DX002 (ip), vehicle: saline 95 % of control
